The values below come from patent US9296698B2, “Amino heteroaryl compounds as beta-secretase modulators and methods of use” (Amgen Inc., priority 2009, dated 2016).

Assay [1] has as its target BACE 1 (Beta Secretase enzyme) (Homo sapiens, UniProt P56817). As to the kind of experiment: In vitro enzymatic BACE FRET assay. It counts as biochemical. Set-up: BACE 1 FRET assay (uM): scale not given here. As for the experimental part:
In Vitro Enzymatic BACE FRET (Fluorescence Resonance Energy Transfer) Assay (Enzyme Assay Data in Table 1)
The assay buffer used in this screen is 0.05 M acetate, pH 4.2, 10% DMSO final, 100 uM genapol (which is a nonionic detergent, below its Critical Micelle Concentration). […] The assay is effectively started by the addition of FRET substrate (50 nM) and the combination is incubated for one hour. The FRET assay is terminated with by addition of Tris buffer, which raises the pH to neutrality, and the fluorescence is determined. The FRET substrate is a peptide with commercially available fluorophore and quencher, on opposite sides of the BACE cleavage site.

Assay [2] concerns Aβ40 in conditioned medium of cells stably expressing Amyloid Precursor Protein (APP). The assay is described as follows: In vitro BACE cell-based assay (HEK cell assay), Aβ40 sandwich ELISA. The settings on record: Homo sapiens. On the procedure:
In Vitro BACE Cell-Based Assay:
The cell-based assay measures inhibition or reduction of Aβ40 in conditioned medium of test compound treated cells expressing amyloid precursor protein.
Cells stably expressing Amyloid Precursor Protein (APP) were plated at a density of 40K cells/well in 96 well plates (Costar). The cells were cultivated for 24 hours at 37° C. and 5% CO2 in DMEM supplemented with 10% FBS. The test compounds were then added to cells in 10-point dose response concentrations with the starting concentration being either 100 μM or 10 μM. The compounds were diluted from stock solutions in DMSO and the final DMSO concentration of the test compounds on cells was 0.1%. After 24 h of incubation with the test compounds the supernatant conditioned media was collected and the Aβ 40 levels were determined using a sandwich ELISA. The IC50 of the compound was calculated from the percent of control or percent inhibition of Aβ 40 as a function of the concentration of the test compound.
The sandwich ELISA to detect Aβ 40 was performed in 96 well microtiter plates, which were pre-treated with goat anti-rabbit IgG (Pierce). The capture and detecting antibody pair that were used to detect Aβ 40 from cell supernatants were affinity purified pAb40 (Biosource) and biotinylated 6E10 (Signet Labs Inc.), respectively. The optimal concentration for the pAb40 antibody was 3 μg/ml in Superblock/TBS (Pierce) that was supplemented with 0.05% Tween 20 (Sigma).
Cellular supernatants were incubated with the capture antibody for 3 h at 4° C., followed by 3 wash steps in TBS-tween (0.05%). The detecting antibody incubation was for 2 h at 4° C., again followed by the wash steps as described previously. The final readout of the ELISA is Time-Resolved Fluorescence (counts per minute) using Delfia reagents Streptavidin-Europium and Enhancement solutions (Perkin Elmer) and the Victor 2 multilabel counter (Perkin Elmer).
A general note: An ELISA detects its analyte on a solid surface through an enzyme-linked reagent.

Setting [3] is: IC50 range symbols, Table 1, read-out: BACE 1 FRET assay.
Where [4] appears, read: HEK293, 24 h, IC50 range symbols, Table 1, Aβ40, 24 h incubation, read-out: HEK cell assay.
The mark [5] stands for this setting: bound stated, read-out: IC50 value in the FRET BACE enzyme assay.
Where [6] appears, read: HEK293, bound stated in text, read-out: IC50 value in the BACE cell-based in-vitro assay.

Structures are written as SMILES. Like-named read-outs stand apart in the source and are kept apart here.

BACE 1 (Beta Secretase enzyme), sequence (P56817 46-501, species assumed): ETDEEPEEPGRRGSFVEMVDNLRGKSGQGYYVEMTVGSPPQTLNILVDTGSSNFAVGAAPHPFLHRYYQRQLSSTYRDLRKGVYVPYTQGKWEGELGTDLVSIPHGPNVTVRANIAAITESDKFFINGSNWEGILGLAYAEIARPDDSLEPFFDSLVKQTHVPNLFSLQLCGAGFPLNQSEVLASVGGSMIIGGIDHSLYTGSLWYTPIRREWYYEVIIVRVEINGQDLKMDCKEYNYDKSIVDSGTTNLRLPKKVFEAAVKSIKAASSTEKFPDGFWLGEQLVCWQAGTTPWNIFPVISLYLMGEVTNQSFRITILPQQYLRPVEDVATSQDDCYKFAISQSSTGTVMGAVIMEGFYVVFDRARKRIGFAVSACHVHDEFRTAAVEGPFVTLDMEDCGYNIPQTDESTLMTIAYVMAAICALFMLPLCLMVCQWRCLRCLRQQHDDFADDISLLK

`Nc1nc2ccc(-c3cscn3)cc2cc1CCC(=O)NCC1CCCCC1` [Example 2, 3-(2-amino-6-(thiazol-4-yl)quinolin-3-yl)-N-(cyclohexylmethyl)propanamide]: the IC50 was 1000 to 5000 nM in assay [1] (setting [3]) and above 5000 nM in assay [2] (setting [4]).

`Nc1nc2ccc(-c3ccccc3Cl)cc2cc1CCC(=O)NCC1CCCCC1` [Example 3, 3-(2-amino-6-(2-chlorophenyl)quinolin-3-yl)-N-(cyclohexylmethyl)propanamide]: the IC50 was below 500 nM in assay [1] (setting [3]) and 1000 to 5000 nM in assay [2] (setting [4]).

Take `Cc1nccn1-c1ccc2nc(N)c(CCC(=O)NCC3CCCCC3)cc2c1` [Example 4, 3-(2-amino-6-(2-methyl-1H-imidazol-1-yl)quinolin-3-yl)-N-(cyclohexylmethyl)propanamide]: the IC50 in assay [1] (setting [3]) and in assay [2] (setting [4]) was above 5000 nM throughout.

On to `Cc1ccccc1-c1ccc2nc(N)c(C(C)CC(=O)NCC3CCCCC3)cc2c1` (stereo not shown) [Example 6, 3-(2-amino-6-o-tolylquinolin-3-yl)-N-(cyclohexylmethyl)butanamide], for which the IC50 in assay [1] (setting [3]) is below 500 nM; in assay [2] (setting [4]), above 5000 nM.

With `CC(Cc1cc2cc(C3CC3C)ccc2nc1N)C(=O)NCCC(C)(C)C` (stereo not shown) [Example 7, 3-(2-amino-6-(2-methylcyclopropyl)quinolin-3-yl)-N-(3,3-dimethylbutyl)-2-methylpropanamide], the figures for the IC50 in assay [1] (setting [3]) and in assay [2] (setting [4]) were below 500 nM and 1000 to 5000 nM, respectively.

As for `CNC(=O)[C@H](C)Cc1cc2cc(-c3c(C)cccc3C(=O)N3CCCC3)ccc2nc1N` [Example 9, (R)-3-(2-amino-6-(2-methyl-6-(pyrrolidine-1-carbonyl)phenyl)quinolin-3-yl)-N,2-dimethylpropanamide], the IC50 in assay [1] (setting [3]) was below 500 nM; in assay [1] (setting [5]) it was below 50 nM; in assay [2] (setting [4]) it was below 500 nM; in assay [2] (setting [6]) it was below 100 nM.

As to `CC(Cc1cc2cc(-c3cccc(Cl)c3)ccc2nc1N)C(=O)NC1CCOC2(CCC2)C1` (stereo not shown) [Example 11, 3-(2-amino-6-(3-chlorophenyl)-3-quinolinyl)-2-methyl-N-(5-oxaspiro[3,5]non-8-yl)propanamide], the IC50 in assay [1] (setting [3]) is below 500 nM; in assay [1] (setting [5]) it was below 50 nM; in assay [2] (setting [4]), below 500 nM.

As to `Cc1ccccc1-c1ccc2nc(N)c(C[C@@H](C)C(=O)NC3C[C@@H](C)O[C@@H](C)C3)cc2c1` (stereo partly drawn) [Example 12, (2R)-3-(2-amino-6-o-tolylquinolin-3-yl)-N-(cis-2,6-dimethyltetrahydro-2H-pyran-4-yl)-2-methylpropanamide], the IC50 is below 500 nM in assay [1] (setting [3]), below 50 nM in assay [1] (setting [5]), below 500 nM in assay [2] (setting [4]) and below 100 nM in assay [2] (setting [6]).

Take `Cc1ccccc1-c1ccc2nc(N)c(CCC(=O)NC3CCOCC3)cc2c1` [Example 15, 3-(2-amino-6-o-tolylquinolin-3-yl)-N-(tetrahydro-2H-pyran-4-yl)propanamide]: the IC50 in assay [1] (setting [3]) is below 500 nM; in assay [2] (setting [4]) it was above 5000 nM.

With `Cc1ccccc1-c1ccc2nc(N)c(CCC(=O)NCC3CCCO3)cc2c1` (stereo not shown) [Example 17, 3-(2-amino-6-o-tolylquinolin-3-yl)-N-((tetrahydrofuran-2-yl)methyl)propanamide], the values for the IC50 in assay [1] (setting [3]) and in assay [2] (setting [4]) were below 500 nM and above 5000 nM, respectively.

As for `COCCNC(=O)CCc1cc2cc(-c3ccccc3C)ccc2nc1N` [Example 18, 3-(2-amino-6-o-tolylquinolin-3-yl)-N-(2-methoxyethyl)propanamide], the IC50 is below 500 nM in assay [1] (setting [3]) and above 5000 nM in assay [2] (setting [4]).

For the compound `Cc1ccccc1-c1ccc2nc(N)c(CCC(=O)NCC3CCOCC3)cc2c1` [Example 19, 3-(2-amino-6-o-tolylquinolin-3-yl)-N-((tetrahydro-2H-pyran-4-yl)methyl)propanamide], the IC50 in assay [1] (setting [3]) was below 500 nM; in assay [2] (setting [4]), 1000 to 5000 nM.

For `Cc1ccccc1-c1ccc2nc(N)c(CCC(=O)NCC(C)(C)C)cc2c1` [Example 21, 3-(2-amino-6-o-tolylquinolin-3-yl)-N-neopentylpropanamide], the results for the IC50 in assay [1] (setting [3]) and in assay [2] (setting [4]) were below 500 nM and above 5000 nM, respectively.

On to `Cc1ccccc1-c1ccc2nc(N)c(CCC(=O)NCc3ccccc3)cc2c1` [Example 23, 3-(2-amino-6-o-tolylquinolin-3-yl)-N-benzylpropanamide], for which the IC50 in assay [1] (setting [3]) and in assay [2] (setting [4]) was below 500 nM in each case.

Consider `Cc1ccccc1-c1ccc2nc(N)c(CCC(=O)NCCC3CCCCC3)cc2c1` [Example 24, 3-(2-amino-6-o-tolylquinolin-3-yl)-N-(2-cyclohexylethyl)propanamide], for which the IC50 in assay [1] (setting [3]) and in assay [2] (setting [4]) was below 500 nM in each case.

For the compound `Cc1ccccc1-c1ccc2nc(N)c(CCC(=O)Nc3ccccc3)cc2c1` [Example 25, 3-(2-amino-6-o-tolylquinolin-3-yl)-N-phenylpropanamide], the values for the IC50 in assay [1] (setting [3]) and in assay [2] (setting [4]) were below 500 nM and 500 to 1000 nM, respectively.

For the compound `Nc1nc2ccc(-c3cccnc3)cc2cc1CCC(=O)NCC1CCCCC1` [Example 34, 3-(2-amino-6-(pyridin-3-yl)quinolin-3-yl)-N-(cyclohexylmethyl)propanamide], in assay [1] (IC50 range symbols, Table 1), the “BACE 1 FRET assay (uM)” value was “_++”. The IC50 in assay [2] (setting [4]) fell in the range of 1000 to 5000 nM.

For `Cc1ncccc1-c1ccc2nc(N)c(CCC(=O)NCC3CCCCC3)cc2c1` [Example 38, 3-(2-amino-6-(2-methylpyridin-3-yl)quinolin-3-yl)-N-(cyclohexylmethyl)propanamide], the IC50 was 500 to 1000 nM in assay [1] (setting [3]) and above 5000 nM in assay [2] (setting [4]).

As for `Cc1ccccc1-c1ccc2nc(N)c(CCC(=O)NC3CCCN(C)C3)cc2c1` (stereo not shown) [Example 39, 3-(2-amino-6-o-tolylquinolin-3-yl)-N-(1-methylpiperidin-3-yl)propanamide], the IC50 in assay [1] (setting [3]) and in assay [2] (setting [4]) was 1000 to 5000 nM throughout.

In the case of `Cc1ccccc1-c1ccc2nc(N)c(CCC(=O)NCC3CCCCO3)cc2c1` (stereo not shown) [Example 40, 3-(2-amino-6-o-tolylquinolin-3-yl)-N-((tetrahydro-2H-pyran-2-yl)methyl)propanamide], the IC50 in assay [1] (setting [3]) was below 500 nM; in assay [2] (setting [4]), 1000 to 5000 nM.

Regarding `N#Cc1ccccc1-c1ccc2nc(N)c(CCC(=O)NCC3CCCCC3)cc2c1` [Example 41, 3-(2-amino-6-(2-cyanophenyl)quinolin-3-yl)-N-(cyclohexylmethyl)propanamide], the results for the IC50 in assay [1] (setting [3]) and in assay [2] (setting [4]) were below 500 nM and 1000 to 5000 nM, respectively.

As for `Nc1nc2ccc(-c3ccccc3F)cc2cc1CCC(=O)NCC1CCCCC1` [Example 42, 3-(2-amino-6-(2-fluorophenyl)quinolin-3-yl)-N-(cyclohexylmethyl)propanamide], the values for the IC50 in assay [1] (setting [3]) and in assay [2] (setting [4]) were below 500 nM and above 5000 nM, respectively.

Consider `Nc1nc2ccc(-c3cccc(F)c3)cc2cc1CCC(=O)NCC1CCCCC1` [Example 43, 3-(2-amino-6-(3-fluorophenyl)quinolin-3-yl)-N-(cyclohexylmethyl)propanamide], for which the IC50 in assay [1] (setting [3]) was in the range of 500 to 1000 nM; in assay [2] (setting [4]) it was 1000 to 5000 nM.

For the compound `COc1ccccc1-c1ccc2nc(N)c(CCC(=O)NCC3CCCCC3)cc2c1` [Example 44, 3-(2-amino-6-(2-methoxyphenyl)quinolin-3-yl)-N-(cyclohexylmethyl)propanamide], the IC50 in assay [1] (setting [3]) is below 500 nM; in assay [2] (setting [4]), 1000 to 5000 nM.

As to `Nc1nc2ccc(-c3ccccc3)cc2cc1CCC(=O)NCC1CCCCC1` [Example 45, 3-(2-amino-6-phenylquinolin-3-yl)-N-(cyclohexylmethyl)propanamide], the IC50 in assay [1] (setting [3]) was 500 to 1000 nM; in assay [2] (setting [4]) it was above 5000 nM.

On to `Cc1ccncc1-c1ccc2nc(N)c(CCC(=O)NCC3CCCCC3)cc2c1` [Example 46, 3-(2-amino-6-(4-methylpyridin-3-yl)quinolin-3-yl)-N-(cyclohexylmethyl)propanamide], for which the IC50 in assay [1] (setting [3]) was 1000 to 5000 nM; in assay [2] (setting [4]) it was above 5000 nM.

As to `Cc1ccccc1-c1ccc2nc(N)c(CC(C)C(=O)N[C@H](C)C3CCCCC3)cc2c1` (stereo partly drawn) [Example 47, 3-(2-amino-6-o-tolylquinolin-3-yl)-N-((R)-1-cyclohexylethyl)-2-methylpropanamide], the figures for the IC50 in assay [1] (setting [3]) and in assay [2] (setting [4]) were below 500 nM and 1000 to 5000 nM, respectively.

Take `Cc1ccccc1-c1ccc2nc(N)c(CCCNC(=O)C3CCCCC3)cc2c1` [Example 48, N-(3-(2-amino-6-o-tolylquinolin-3-yl)propyl)cyclohexanecarboxamide]: the IC50 in assay [1] (setting [3]) was below 500 nM; in assay [2] (setting [4]) it was 1000 to 5000 nM.
